Laboratory results: patent publication US20220081412A1, “QUINOLINYL-PYRAZINE-CARBOXAMIDE COMPOUNDS AND USES THEREOF” (The Regents of the University of Michigan, priority 2018, published 2022)

System: MIA PaCa-2 cells
Assay: Bru-seq analysis for nascent RNA synthesis (log2FC of genes, GSEA gene sets)
Assay type: cell-based, human
[1] = downregulated gene sets, C2, 4 h, MIA PaCa-2 cells

## CCN(CC)CCCC(C)Nc1cnc(C(=O)Nc2cc(C)cc3cccnc23)cn1 (stereo not drawn) [J4, 5-((5-(diethylamino)pentan-2-yl)amino)-N-(6-methylquinolin-8-yl)pyrazine-2-carboxamide]
  ES: 0.576
  NES: 1.841
  synthesis of INSIG1, DHCR7, MVK and MSMO1 RNAs: upregulated
4 h
  expression of GPR135, SPDYA and ABCA1: significant decrease
4 h of treatment
  Cell Cycle, Mitotic pathway: upregulated
AC004076.2, 4 h
  log2FC: −0.85
AC005534.1, 4 h
  log2FC: −0.75
AC005614.2, 4 h
  log2FC: −0.94
AC006141.1, 4 h
  log2FC: −0.78
AC007038.2, 4 h
  log2FC: −1.27
AC007619.1, 4 h
  log2FC: −0.84
AC007620.2, 4 h
  log2FC: −0.89
AC008115.3, 4 h
  log2FC: 0.78
AC008264.2, 4 h
  log2FC: −0.80
AC008906.1, 4 h
  log2FC: −0.98
AC010615.1, 4 h
  log2FC: −1.64
AC011379.1, 4 h
  log2FC: 0.74
AC018630.1, 4 h
  log2FC: −0.77
AC026461.1, 4 h
  log2FC: 0.86
AC068473.5, 4 h
  log2FC: 0.77
AC080080.1, 4 h
  log2FC: 0.72
AC087280.2, 4 h
  log2FC: −0.80
AC091152.2, 4 h
  log2FC: −1.06
AC091940.1, 4 h
  log2FC: −0.79
AC098934.1, 4 h
  log2FC: 0.72
AC108471.2, 4 h
  log2FC: 0.85
AC110769.2, 4 h
  log2FC: 0.80
AC117382.1, 4 h
  log2FC: −0.85
AC141586.1, 4 h
  log2FC: 0.77
AC239868.4, 4 h
  log2FC: 1.12
AL050343.1, 4 h
  log2FC: −0.82
AL133338.1, 4 h
  log2FC: 1.02
AL136984.1, 4 h
  log2FC: −1.05
AL136987.1, 4 h
  log2FC: −0.83
AL139260.1, 4 h
  log2FC: 0.88
AP001107.9, 4 h
  log2FC: 0.81
AP001830.1, 4 h
  log2FC: 0.75
AP002387.1, 4 h
  log2FC: 0.72
AP002748.3, 4 h
  log2FC: 0.76
AVPI1, 4 h
  log2FC: 1.37
BHLHE40, 4 h
  log2FC: 1.32
CASC21, 4 h
  log2FC: −0.87
CCNG2, 4 h
  log2FC: 1.62
DDIT3, 4 h
  log2FC: 1.32
DDIT4, 4 h
  log2FC: 2.33
DEPDC1-AS1, 4 h
  log2FC: 1.05
DHCR7, 4 h
  log2FC: 2.13
DNAJC3-AS1, 4 h
  log2FC: 0.75
EXTL3-AS1, 4 h
  log2FC: 0.73
FDFT1, 4 h
  log2FC: 1.65
FP671120.1, 4 h
  log2FC: −1.32
HIST1H1E, 4 h
  log2FC: 1.24
HIST1H3B, 4 h
  log2FC: 1.26
HMGCS1, 4 h
  log2FC: 1.35
HSD17B7P2, 4 h
  log2FC: 0.76
IDI1, 4 h
  log2FC: 1.49
INSIG1, 4 h
  log2FC: 2.57
KRT18P31, 4 h
  log2FC: 0.81
LINC01204, 4 h
  log2FC: −0.84
LINC01337, 4 h
  log2FC: −1.19
LINC01547, 4 h
  log2FC: 0.93
LINC01930, 4 h
  log2FC: −1.00
LIPG, 4 h
  log2FC: 1.81
LSS, 4 h
  log2FC: 1.25
MSMO1, 4 h
  log2FC: 1.65
MVD, 4 h
  log2FC: 1.36
MVK, 4 h
  log2FC: 1.68
NEU1, 4 h
  log2FC: 2.68
PCYT2, 4 h
  log2FC: 1.70
RNVU1-6, 4 h
  log2FC: −1.50
SCD, 4 h
  log2FC: 1.95
SDR39U1, 4 h
  log2FC: 1.67
SH2D5, 4 h
  log2FC: 1.29
SLC2A1-AS1, 4 h
  log2FC: 1.02
SLC2A6, 4 h
  log2FC: 1.74
SYPL1P2, 4 h
  log2FC: 0.84
TBC1D17, 4 h
  log2FC: 1.62
TPRKBP2, 4 h
  log2FC: −1.15
TUBA1A, 4 h
  log2FC: 1.24
ZNF295-AS1, 4 h
  log2FC: 0.94
[1]
  ES BILD_CTNNBl_ONCOGENIC_SIGNATURE: −0.449
  ES DACOSTA_UV_RESPONSE_VIA_ERCC3_COMMON_DN: −0.439
  ES DACOSTA_UV_RESPONSE_VIA_ERCC3_TTD_DN: −0.469
  ES DACOSTA_UV_RESPONSE_VIA_ERCC3_XPCS_DN: −0.428
  ES DAZARD_UV_RESPONSE_CLUSTER_G6: −0.408
  ES DOANE_BREAST_CANCER_CLASSES_DN: −0.578
  ES GABRIELY_MIR21_TARGETS: −0.328
  ES GUENTHER_GROWTH_SPHERICAL_VS_ADHERENT_DN: −0.531
  ES HAMAI_APOPTOSIS_VIA_TRAIL_UP: −0.368
  ES HAN_JNK_SINGALING_DN: −0.579
  ES HUTTMANN_B_CLL_POOR_SURVIVAL_DN: −0.606
  ES KEGG_NEUROACTIVE_LIGAND_RECEPTOR_INTERACTION: −0.624
  ES LEE_TARGETS_OF_PTCH1_AND_SUFU_UP: −0.515
  ES MARTINEZ_RESPONSE_TO_TRABECTEDIN: −0.482
  ES MILI_PSEUDOPODIA_HAPTOTAXIS_UP: −0.322
  ES RAMALHO_STEMNESS_UP: −0.331
  ES REACTOME_ASSOCIATION_OF_TRIC_CCT_WITH_TARGET_PROTEINS_DURING_BIOSYNTHESIS: −0.551
  ES SENGUPTA_NASOPHARYNGEAL_CARCINOMA_UP: −0.360
  ES SENGUPTA_NASOPHARYNGEAL_CARCINOMA_WITH_LMP1_UP: −0.365
  ES TCGA_GLIOBLASTOMA_COPY_NUMBER_DN: −0.533
  ES THUM_SYSTOLIC_HEART_FAILURE_DN: −0.352
  ES TURASHVILI_BREAST_LOBULAR_CARCINOMA_VS_DUCTAL_NORMAL_DN: −0.476
  ES ZHANG_TLX_TARGETS_36HR_DN: −0.470
  ES ZHANG_TLX_TARGETS_DN: −0.446
  ES ZHENG_FOXP3_TARGETS_IN_T_LYMPHOCYTE_DN: −0.611
  NES BILD_CTNNBl_ONCOGENIC_SIGNATURE: −1.841
  NES DACOSTA_UV_RESPONSE_VIA_ERCC3_COMMON_DN: −2.348
  NES DACOSTA_UV_RESPONSE_VIA_ERCC3_TTD_DN: −1.878
  NES DACOSTA_UV_RESPONSE_VIA_ERCC3_XPCS_DN: −1.784
  NES DAZARD_UV_RESPONSE_CLUSTER_G6: −1.855
  NES DOANE_BREAST_CANCER_CLASSES_DN: −1.830
  NES GABRIELY_MIR21_TARGETS: −1.642
  NES GUENTHER_GROWTH_SPHERICAL_VS_ADHERENT_DN: −1.656
  NES HAMAI_APOPTOSIS_VIA_TRAIL_UP: −1.942
  NES HAN_JNK_SINGALING_DN: −1.665
  NES HUTTMANN_B_CLL_POOR_SURVIVAL_DN: −2.076
  NES KEGG_NEUROACTIVE_LIGAND_RECEPTOR_INTERACTION: −1.898
  NES LEE_TARGETS_OF_PTCH1_AND_SUFU_UP: −1.661
  NES MARTINEZ_RESPONSE_TO_TRABECTEDIN: −1.727
  NES MILI_PSEUDOPODIA_HAPTOTAXIS_UP: −1.718
  NES RAMALHO_STEMNESS_UP: −1.615
  NES REACTOME_ASSOCIATION_OF_TRIC_CCT_WITH_TARGET_PROTEINS_DURING_BIOSYNTHESIS: −1.804
  NES SENGUPTA_NASOPHARYNGEAL_CARCINOMA_UP: −1.794
  NES SENGUPTA_NASOPHARYNGEAL_CARCINOMA_WITH_LMP1_UP: −1.837
  NES TCGA_GLIOBLASTOMA_COPY_NUMBER_DN: −1.738
  NES THUM_SYSTOLIC_HEART_FAILURE_DN: −1.673
